Results on twelve molecules are retold here after PubChem BioAssay (NCI).

Each structure is given as a SMILES string.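 Grown in 96-well plates, cells were treated for 48 hours with each compound at five concentrations. Insufficient inhibition: endpoint recorded as highest concentration tested. At the GI50, growth is halved. TGI: concentration producing complete growth inhibition.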

Among the test systems are EKVX NSCLC; HCT-15 colon; KM12 colon; OVCAR-5 ovarian; OVCAR-8 ovarian; SNB-19 CNS; TK-10 renal; UO-31 renal; SF-539 CNS; SNB-75 CNS.
Holding throughout (assay): inhibition of tumour cell growth, NCI panel, 48 h

For `C=CC(C=O)C1(O)CCOC(=O)/C1=C\N` (stereo unspecified), the GI50 in the assay on EKVX NSCLC, with HCT-15 colon, in the assay with KM12 colon, in the assay with OVCAR-5 ovarian, with OVCAR-8 ovarian and with SNB-19 CNS was > 100 µM in each case. The GI50 in the assay with TK-10 renal and in the assay on UO-31 renal was > 100 µM in each case. For the same molecule, the TGI with EKVX NSCLC, with HCT-15 colon, in the assay on KM12 colon, in the assay with OVCAR-5 ovarian, in the assay with OVCAR-8 ovarian and in the assay on SNB-19 CNS was > 100 µM each time. The TGI in the assay with TK-10 renal and in the assay with UO-31 renal was > 100 µM in each case.

As to `COc1cnc2c(c1)C(=O)c1c-2n(CCCN2CCC(O)CC2)c(=O)c2cc(F)ccc12`, the GI50 in the assay on EKVX NSCLC is 0.271 µM; in the assay on OVCAR-5 ovarian it was 0.355 µM; in the assay with OVCAR-8 ovarian, 0.173 µM; in the assay on SF-539 CNS, 0.295 µM; in the assay on SNB-19 CNS, 0.175 µM; with SNB-75 CNS, 0.252 µM. Further, the GI50 was 0.323 µM with TK-10 renal and 0.135 µM in the assay on UO-31 renal. Further, the TGI in the assay with EKVX NSCLC was found to be 1.62 µM; with OVCAR-5 ovarian, 1.6 µM; with OVCAR-8 ovarian, 1.16 µM; in the assay with SF-539 CNS, 1.14 µM; in the assay on SNB-19 CNS, 1.32 µM; in the assay on SNB-75 CNS, 2.59 µM. Moreover, the results for the TGI in the assay on TK-10 renal and in the assay on UO-31 renal were 1.59 µM and 0.619 µM, respectively.

`CCN1C(NN)=NS(=O)(=O)c2ccccc21`: the TGI in the assay with EKVX NSCLC, with HCT-15 colon, with KM12 colon, with OVCAR-5 ovarian, with OVCAR-8 ovarian and with SF-539 CNS was > 100 µM in each case. The TGI in the assay with SNB-19 CNS, in the assay on TK-10 renal and in the assay on UO-31 renal was > 100 µM throughout.

With `O=C(CSC(c1ccccc1)c1ccccc1)N/N=C/c1cccc(Cl)c1`, the GI50 in the assay with EKVX NSCLC was 16.3 µM; in the assay with HCT-15 colon, 19.6 µM; with KM12 colon it was 17.3 µM; in the assay on OVCAR-5 ovarian, 17.5 µM; in the assay on OVCAR-8 ovarian, 17.6 µM; in the assay with SF-539 CNS it was 18.8 µM. In addition, the GI50 in the assay on TK-10 renal was 19.2 µM; in the assay with UO-31 renal, 11.7 µM. The TGI in the assay on EKVX NSCLC was 35.9 µM; in the assay on HCT-15 colon, 38.6 µM; in the assay with KM12 colon, 33.2 µM; with OVCAR-5 ovarian, 33.8 µM; in the assay with OVCAR-8 ovarian, 39.6 µM; in the assay on SF-539 CNS, 33.3 µM. Further, the TGI in the assay on TK-10 renal worked out at 34.9 µM; in the assay on UO-31 renal, 23.9 µM.

Consider `O=C(c1cc2ccccc2o1)N(Cc1ccccc1)c1ccccc1`, for which the TGI with EKVX NSCLC was 78.2 µM; with HCT-15 colon, 41 µM; with KM12 colon, 46.6 µM; in the assay on OVCAR-5 ovarian, > 100 µM; in the assay with OVCAR-8 ovarian, 66.2 µM; in the assay with SNB-19 CNS, > 100 µM. The TGI is > 100 µM with SNB-75 CNS, > 100 µM with TK-10 renal and 51.8 µM in the assay with UO-31 renal.

In the case of `Cc1cc(=O)[nH]o1`, the TGI in the assay with EKVX NSCLC, in the assay on HCT-15 colon, in the assay on OVCAR-5 ovarian, in the assay on OVCAR-8 ovarian, in the assay on SF-539 CNS and in the assay with SNB-19 CNS was > 100 µM each time. In addition, the TGI in the assay with SNB-75 CNS, with TK-10 renal and with UO-31 renal was > 100 µM each time.

In the case of `O=[N+]([O-])c1ccc2c(N3CCC(CCCC4CCN(c5ncnc6cc([N+](=O)[O-])ccc56)CC4)CC3)ncnc2c1`, the GI50 with HCT-15 colon was > 50.6 µM; in the assay on KM12 colon it was > 56.7 µM; with OVCAR-5 ovarian, > 100 µM; in the assay on OVCAR-8 ovarian, 1.62 µM; in the assay with SF-539 CNS, > 47.9 µM; in the assay on SNB-19 CNS, > 42.3 µM. Also, the results for the GI50 with SNB-75 CNS, in the assay on TK-10 renal and with UO-31 renal were > 39.6 µM, > 58.7 µM and 27.3 µM, respectively. The TGI in the assay on HCT-15 colon, in the assay on KM12 colon, in the assay with OVCAR-5 ovarian, with OVCAR-8 ovarian, in the assay with SF-539 CNS and with SNB-19 CNS was > 100 µM each time. Besides, the TGI is > 71.2 µM in the assay with SNB-75 CNS, > 100 µM with TK-10 renal and > 100 µM with UO-31 renal.

With `CCCc1c[nH]c(-c2ccc(-c3cc(CCC)c(C=O)[nH]3)s2)c1`, the TGI in the assay with HCT-15 colon was 29.6 µM; in the assay on KM12 colon, 28.5 µM; in the assay with OVCAR-8 ovarian, 26.5 µM; in the assay on SF-539 CNS it was 32.8 µM; in the assay with SNB-19 CNS, 37 µM; in the assay on SNB-75 CNS, 34.8 µM. For the same molecule, in the assay with TK-10 renal, the TGI turned out to be 28.7 µM.

With `CN(C)CCNC(=O)Cn1cc([N+](=O)[O-])c(=O)c2ccccc21`, the TGI in the assay on HCT-15 colon, in the assay on KM12 colon, in the assay on OVCAR-5 ovarian, with OVCAR-8 ovarian, in the assay with SF-539 CNS and in the assay on SNB-19 CNS was > 100 µM each time. Also, the TGI in the assay on SNB-75 CNS, with TK-10 renal and in the assay with UO-31 renal was > 100 µM each time.

`CCOC(=O)C1=C(O)CSC1=Nc1ccccc1`: the TGI with HCT-15 colon, in the assay with KM12 colon, with OVCAR-5 ovarian, in the assay with OVCAR-8 ovarian, in the assay with SF-539 CNS and in the assay on SNB-19 CNS was > 100 µM throughout. Moreover, the TGI in the assay on SNB-75 CNS, with TK-10 renal and with UO-31 renal was > 100 µM throughout.

With `CC(O)C(N=Cc1nc(-c2ccccc2)oc1O)C(=O)O` (stereo unspecified), the TGI in the assay on EKVX NSCLC, with KM12 colon, in the assay with OVCAR-5 ovarian, in the assay with OVCAR-8 ovarian, in the assay with SF-539 CNS and in the assay with SNB-19 CNS was > 100 µM each time. The TGI in the assay on SNB-75 CNS, in the assay with TK-10 renal and with UO-31 renal was > 100 µM in each case.

Regarding `O=c1cccccc1NCCCCCCNc1cccccc1=O`, the TGI in the assay on EKVX NSCLC, in the assay with HCT-15 colon, in the assay on KM12 colon, in the assay with OVCAR-5 ovarian, in the assay with OVCAR-8 ovarian and in the assay on SNB-19 CNS was > 100 µM throughout. The TGI in the assay with SNB-75 CNS, with TK-10 renal and in the assay on UO-31 renal was > 100 µM each time.
